For one assay, the target named is T1, TbINO1 (Trypanosoma brucei brucei, UniProt Q5QQ46).
T1 sequence (Q5QQ46 1-528): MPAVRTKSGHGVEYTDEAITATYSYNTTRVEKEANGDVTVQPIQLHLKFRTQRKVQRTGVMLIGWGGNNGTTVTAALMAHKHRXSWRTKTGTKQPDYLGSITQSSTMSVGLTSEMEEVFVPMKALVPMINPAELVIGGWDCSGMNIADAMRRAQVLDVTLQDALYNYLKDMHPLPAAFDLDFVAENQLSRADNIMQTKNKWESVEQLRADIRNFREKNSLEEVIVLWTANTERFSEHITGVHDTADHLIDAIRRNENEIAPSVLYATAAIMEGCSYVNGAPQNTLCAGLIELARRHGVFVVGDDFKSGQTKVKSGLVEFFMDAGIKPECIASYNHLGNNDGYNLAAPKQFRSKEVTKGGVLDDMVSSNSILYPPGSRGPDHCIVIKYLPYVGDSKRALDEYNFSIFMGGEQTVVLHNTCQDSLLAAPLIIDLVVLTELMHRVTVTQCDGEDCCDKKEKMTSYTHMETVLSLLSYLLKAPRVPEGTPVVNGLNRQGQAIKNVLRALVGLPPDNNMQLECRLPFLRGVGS
In words: biochemical. It counts as binding.

A further assay deals with HeLa cells. As to the kind of experiment: cells. To be noted: for viability at 500 µM: Homo sapiens, HeLa, 65 h. In a few lines:
(§1)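 HeLa and A549 cells grown in DMEM with 10% FCS and 2 mM L-Glutamine were seeded at 2 × 10^4 cells/well. They were exposed to compounds for ~65 hours, then Alamar Blue was added for a further 5 hours to measure viability.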

The next assay has as its system A549 cells. In words: Cytotoxicity against A549 cells, Alamar Blue. It is filed as cell-based. The following applies: Supplementary Table 1, compound 0.5 mM, percentage of controls (n=1); for viability at 500 µM: Homo sapiens, A549, 65 h. In outline:
as §1
(In general: Resazurin is reduced to fluorescent resorufin, in cell work by metabolically active cells.)

[1] abbreviates: read-out: HeLa Cells Alamar Blue.
Where [2] appears, read: read-out: HeLa Cells Alamar Blue (% survival).
The mark [3] stands for this setting: read-out: Tb Ino1 Tm Shift [˚C].
The mark [4] stands for this setting: Supplementary Table 1, compound 1mM, mean ± SD from Boltzman curve fitting, read-out: Tb Ino1 Tm Shift [˚C].

Molecules are shown by their SMILES. Like-named read-outs stand apart in the source and are kept apart here.

On to `O=C(O)c1ccoc1` [compound 28, 3-furoic acid], for which the ΔTm at 1000 µM at TbINO1 (read-out: TbIno1 Tm shift [°C]) worked out at 3.72 ± 0.08 °C. Besides, the viability at 500 µM was found to be 48.2 ± 11.8% in the assay with HeLa cells (setting [1]), 48.2 ± 11.8% in the assay with HeLa cells (setting [2]) and 111% in the assay on A549 cells.
As to `Oc1ccc(F)cc1` [compound 29, 4‐fluorophenol], at TbINO1 (setting [3]), the ΔTm at 1000 µM was 0.23 ± 0.08 °C. Further, the viability at 500 µM with HeLa cells (read-out: HeLa Cells Alamar Blue, Supplementary Table 1, compound 0.5 mM, percentage of controls, mean ± SD (n=3) or SE (n=2)) was 96.2 ± 7.7%; in the assay with A549 cells, 88.4%.
On to `Cc1ccc(CO)o1` [compound 30, (5-methyl-2-furyl)methanol], for which, on TbINO1 (read-out: TbIno1 Tm shift [°C]), the ΔTm at 1000 µM is 3.79 ± 0.08 °C. Moreover, the values for the viability at 500 µM with HeLa cells (setting [1]), in the assay on HeLa cells (setting [2]) and in the assay on A549 cells were 23.3 ± 18.6%, 23.3 ± 18.6% and 23.7%, respectively.
Regarding `CC1=NNC(=O)CC1` [compound 31, 6‐methyl‐2,3,4,5‐tetrahydropyridazin‐3‐one], on TbINO1 (Supplementary Table 1, compound 1mM, mean ± SD from Boltzman curve fitting), the “Tb Ino1 Tm Shift [˚C]” value turned out to be 0.22 ± 0.07 °C. In addition, in the assay on HeLa cells (Supplementary Table 1, compound 0.5 mM, percentage of controls, mean ± SD (n=3) or SE (n=2)), the “HeLa Cells Alamar Blue” value is recorded as 85.4 ± 6.1 percentage of controls. Moreover, in the assay on A549 cells, the “A549 Cells Alamar Blue” value is on record as 68.2 percentage of controls.
Turning to `CN1CCN(C)C1=O` [compound 35, 1,3‐dimethylimidazolidin‐2‐one], the ΔTm at 1000 µM at TbINO1 (setting [4]) is 0.04 ± 0.07 °C. In addition, the viability at 500 µM was 101 ± 6.6% with HeLa cells (setting [1]) and 92.7% with A549 cells.
On to `CC1CNC(C)CN1` (stereo not shown) [compound 36, 2,5‐dimethylpiperazine], for which the ΔTm at 1000 µM at TbINO1 (setting [3]) was determined as 0.18 ± 0.08 °C. Besides, the results for the viability at 500 µM in the assay with HeLa cells (setting [1]) and in the assay with A549 cells were 91.3 ± 12.1% and 76.6%, respectively.
`O=C(O)[C@H]1CCCN1` [compound 37, D‐proline]: on TbINO1 (setting [3]), the ΔTm at 1000 µM is 0.41 ± 0.06 °C. Further, the viability at 500 µM in the assay with HeLa cells (setting [1]) is 94.8 ± 10.1%; in the assay with A549 cells it was 78.6%.
As to `OCc1nccs1` [compound 38, 1,3‐thiazol‐2‐ylmethanol], at TbINO1 (setting [3]), the ΔTm at 1000 µM is 0.18 ± 0.09 °C. Further, the viability at 500 µM in the assay on HeLa cells (setting [1]) is 99.4 ± 4.1%; in the assay with A549 cells, 95%.
In the same order, the values of `Cc1nnc(N)s1` [compound 39, 5‐methyl‐1,3,4‐thiadiazol‐2‐amine] are 0.31 ± 0.08 °C, 105 ± 14.5% and 72.3%.
On to `O=C(O)C1CCCO1` (stereo not shown) [compound 42, tetrahydro‐2‐furancarboxylic acid], for which the ΔTm at 1000 µM on TbINO1 (setting [3]) stood at 0.3 ± 0.08 °C. Moreover, the viability at 500 µM in the assay on HeLa cells (setting [1]) stood at 81.9 ± 17%; with A549 cells, 75.1%.
Turning to `COC(=O)C1NCCS1` (stereo not shown) [compound 44], the ΔTm at 1000 µM at TbINO1 (setting [3]) stood at 0.11 ± 0.06 °C; at TbINO1 (read-out: TbIno1 Tm shift [°C]) it was 2.81 ± 0.1 °C. Moreover, the viability at 500 µM in the assay with HeLa cells (setting [1]) was 85.7 ± 19.3%; with HeLa cells (setting [2]), 108 ± 15.9%; in the assay with A549 cells, 75.7%.
With `NC1CCSCC1` [compound 45, tetrahydrothiopyran‐4‐ylamine], the ΔTm at 1000 µM on TbINO1 (setting [3]) stood at 0.24 ± 0.07 °C. Moreover, the results for the viability at 500 µM in the assay on HeLa cells (setting [1]) and in the assay with A549 cells were 88.6 ± 3.1% and 95.6%, respectively.
On to `N#CCc1ccccn1` [compound 46, 2‐(2‐pyridyl)acetonitrile], for which the ΔTm at 1000 µM on TbINO1 (setting [3]) was 1.11 ± 0.24 °C. Further, the viability at 500 µM in the assay on HeLa cells (setting [1]) was determined as 63.2 ± 17.9%; with A549 cells, 82.6%.
As to `N#Cc1ccc(F)cc1` [compound 51, 4‐fluorobenzonitrile], the ΔTm at 1000 µM at TbINO1 (setting [4]) is 0.1 ± 0.08 °C. In addition, the figures for the viability at 500 µM with HeLa cells (setting [1]) and in the assay with A549 cells were 90.9 ± 7.5% and 64.2%, respectively.
Take `CCc1cccc(C)n1` [compound 52, 2‐ethyl‐6‐methylpyridine]: the ΔTm at 1000 µM on TbINO1 (setting [3]) was determined as 0.4 ± 0.08 °C. Further, the values for the viability at 500 µM with HeLa cells (setting [1]) and with A549 cells were 89.7 ± 9.7% and 70.8%, respectively.
Regarding `Cc1noc(C)c1C#N` [compound 53, 3,5‐dimethyl‐4‐isoxazolecarbonitrile], on TbINO1 (setting [3]), the ΔTm at 1000 µM is 0.52 ± 0.09 °C. Moreover, the viability at 500 µM in the assay on HeLa cells (setting [1]) worked out at 89.3 ± 2.8%; with A549 cells, 84.5%.
As for `CNCc1ccncc1` [compound 56, N‐methyl‐N‐(4‐pyridinylmethyl)amine], the ΔTm at 1000 µM on TbINO1 (setting [3]) is 0.01 ± 0.08 °C. Besides, the viability at 500 µM was 87.9 ± 9.9% in the assay on HeLa cells (setting [1]) and 78.5% with A549 cells.
As to `COc1cccc(N)c1` [compound 61, 3‐methoxyaniline], the ΔTm at 1000 µM at TbINO1 (setting [4]) was 0.19 ± 0.07 °C. The figures for the viability at 500 µM in the assay on HeLa cells (setting [1]) and in the assay on A549 cells were 48.7 ± 8.9% and 69.2%, respectively.
